Results as given in PMC7579906, “Discovery of a dual inhibitor of NQO1 and GSTP1 for treating glioblastoma” (Journal of Hematology & Oncology, 2020).

How the values were obtained:
NQO1 = target: T1, NQO1 (Homo sapiens, UniProt P15559); assay: NQO1 activity assay (DCPIP reduction); assay type: biochemical; conditions: purified recombinant protein, Fig. 3b; read-out: IC50, inhibition of NQO1 activity
T1 construct: hexahistidine tag followed by a thrombin site (N); made in house; host or cells: Escherichia coli BL21 (DE3)
T1 sequence (P15559 whole entry): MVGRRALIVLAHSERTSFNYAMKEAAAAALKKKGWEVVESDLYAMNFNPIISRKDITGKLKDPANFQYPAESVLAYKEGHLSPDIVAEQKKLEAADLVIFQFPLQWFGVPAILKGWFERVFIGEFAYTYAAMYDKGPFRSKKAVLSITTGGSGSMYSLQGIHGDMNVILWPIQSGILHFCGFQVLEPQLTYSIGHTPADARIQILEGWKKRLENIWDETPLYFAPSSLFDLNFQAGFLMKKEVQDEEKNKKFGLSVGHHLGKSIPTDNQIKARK
Protocol: NQO1 activity was measured essentially as described previously. Assays were performed in 25 mM Tris–HCl, pH 7.4, 0.7 mg/mL BSA, 250 mM sucrose, 0.2 mM NADPH and 40 μM dichlorophenolindophenol (DCPIP) in the presence of NQO1 protein with 10, 5, 2.5, 1.25, 0.625, 0.3125, 0.15625 and 0 μM of MNPC. It is analyzed for the reduction of DCPIP measured at 600 nm.

GSTP1 R100A = target: T2, GSTP1 R100A (Homo sapiens, UniProt P09211, I105V/R101A); assay: Microscale thermophoresis (MST), R100A; conditions: n.b. = no clear binding detected
T2 construct: hexahistidine tag followed by a thrombin site (N); made in house; host or cells: Escherichia coli BL21 (DE3)
T2 sequence (P09211 whole entry R101A/I105V): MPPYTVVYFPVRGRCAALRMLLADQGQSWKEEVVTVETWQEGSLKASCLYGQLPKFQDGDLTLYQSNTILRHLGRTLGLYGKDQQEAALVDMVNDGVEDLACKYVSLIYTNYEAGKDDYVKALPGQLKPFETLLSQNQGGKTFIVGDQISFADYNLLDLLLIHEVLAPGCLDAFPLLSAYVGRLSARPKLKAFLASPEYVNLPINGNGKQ
Protocol: (§1) Since Tris buffer is incompatible with MST labeling, GSTP1 and its mutants were performed an initial buffer exchange to 20 mM HEPES pH 7.6, 200 mM NaCl before labeling. Then, the proteins were fluorescently labeled using Monolith Protein Labeling Kit RED-NHS 2nd generation dye (NanoTemper Technology, Munich, Germany) according to the protocol. MNPC was prepared with a series of concentrations (varying from 2 mM to 11 nM) at a dilution ratio of 1: 2. Six microliters of the fluorescence-labeled GSTP1 or mutations was mixed with 6 μl of variable concentration of MNPC and incubated for 10 min at room temperature. The mixtures were loaded into standard glass capillaries and analyzed on Monolith NT.115 at 25 °C, with 40% LED power and 100% Laser power in triplicate. Data were analyzed by NTAnalysis software to calculate the Kd values.

[1] = test system: U87MG/EGFRvIII intracranial tumors; assay: Intracranial U87MG/EGFRvIII xenograft in nude mice; assay type: in vivo, mouse
Protocol: (§2) Animals were housed, maintained and treated at Emory University in accordance with protocols approved by the Institutional Animal Care and Use Committee (IACUC) at Emory University. For xenograft animal models, U87MG/EGFRvIII cells (2 × 10^6) in 100 μl of PBS were inoculated subcutaneously into 6-week-old nude mice. Tumor growth was assessed every 3 days via size and body weight measurements. The total tumor volume (TV) was calculated according to the following formula: TV (mm^3) = a * b^2/2, where “a” is the […] diameter and “b” denotes the […] diameter. The mice were euthanized after 28 days. For the intracranial model, mice were placed in a stereotaxic instrument, and cells injection (1 × 10^5) in 2 μl was performed stereotaxically at coordinates anteroposterior (AP) -2.0 mm and mediolateral (ML) + 0.7 mm relative to bregma, and dorsoventral (DV) -3.0 mm from the dural surface. The needle remained in place for 5 min before it was removed slowly. The mice were placed on a heating pad until it began to recover from the surgery. After the surgery for 8 days, intraperitoneal (i.p.) injection was used at dose levels of 3 mg/kg, 10 mg/kg or control agent. This treatment was performed every 2 days for a total of 10 times. After the drug treatment, mice were euthanized and the tumor volumes were analyzed by MRI [37].
(§3) The tumors and primary organs from the nude mice of the above models were fixed in 10% formalin overnight and were then embedded in paraffin. Sections were prepared, and H&E staining was conducted to detect any histological changes of the tumors and organs. The expression of Ki67 in the tumor tissue slices was assessed using a technique that has been reported previously. Photographs were taken using a fluorescence microscope (Nikon, Japan).

GSTP1 F8A/Y108A [2] = target: T3, GSTP1 F8A/Y108A (Homo sapiens, UniProt P09211, F9A/I105V/Y109A); assay: GSTP1 kinetic assay, F8A/Y108A mutant; assay type: biochemical; conditions: mean ± SEM (n=3)
T3 construct: hexahistidine tag followed by a thrombin site (N); made in house; host or cells: Escherichia coli BL21 (DE3)
T3 sequence (P09211 whole entry F9A/I105V/Y109A): as the sequence (P09211 whole entry R101A/I105V) above, with F9A, A101R, Y109A counted along it
Protocol: The enzymatic activity of GSTP1 and its mutations was measured through the increased absorbance at 340 nm, which derived from the conjugation of reduced glutathione (GSH) and 1-chloro-2,4-dinitrobenzene (CDNB). The conjugation was initiated by adding CDNB to the mixture of GSH and GSTP1 or its mutants, and OD was immediately and continually measured for 20 min at 25 °C. The final assay mixture included 1 mM CDNB, 1 mM GSH in the buffer of 100 mM potassium phosphate pH 6.5, 1 mM EDTA. The inhibitory potency of MNPC versus GSTP1 or mutants was determined by calculating the residual activity after incubated with MNPC for 30 min at room temperature. Parallel control was run to monitor spontaneous conjugation of GSH and CDNB in the absence of the enzyme, and absorbance change of the control was used for the correction of an enzymatic reaction. The inhibition rate in triplicate was calculated by GraphPad Prism software (GraphPad, San Diego, CA) to give IC50 using nonlinear regression analysis.

GSTP1 F8A/Y108A [3] = target: T3, GSTP1 F8A/Y108A; assay: Microscale thermophoresis (MST), F8A/Y108A; conditions: n.b. = no clear binding detected
Protocol: as §1

U87MG/EGFRvIII cells [4] = assay: Apoptosis: cleaved caspase 3 western blot and TUNEL; assay type: cell-based, human; conditions: 0-5 μM, 48 h, confirmed by TUNEL
Protocol: After different treatments with the conditions described, the cells were harvested and the total proteins were extracted. Equal amounts of the proteins were loaded on SDS-PAGE and western blot assays were analyzed. Primary antibodies were from CST, USA, and the following targets were used: p-EGFR (#2236); EGFR (#2232); NQO1 (#3187); GSTP1 (#3369); cleaved caspase 3 (#9664); β-actin (#3700).
After different treatments, the cells and the tumor tissues were processed with Apo-Direct TUNEL Assay (Roche Applied Science, Germany) following the manufacture’s instruction. The slides were photographed with a fluorescence microscope (Nikon, Japan).

[5] = Toxicity in treated mice (organ H&E, CBC, ALT, AST, body weight); assay type: in vivo, mouse
Protocol: as §2, §3

GSTP1 V104A = target: T4, GSTP1 V104A (Homo sapiens, UniProt P09211, I105A); assay: Microscale thermophoresis (MST), V104A; assay type: binding; conditions: mean ± SEM, three experiments
T4 construct: hexahistidine tag followed by a thrombin site (N); made in house; host or cells: Escherichia coli BL21 (DE3)
T4 sequence (P09211 2-210 I105A): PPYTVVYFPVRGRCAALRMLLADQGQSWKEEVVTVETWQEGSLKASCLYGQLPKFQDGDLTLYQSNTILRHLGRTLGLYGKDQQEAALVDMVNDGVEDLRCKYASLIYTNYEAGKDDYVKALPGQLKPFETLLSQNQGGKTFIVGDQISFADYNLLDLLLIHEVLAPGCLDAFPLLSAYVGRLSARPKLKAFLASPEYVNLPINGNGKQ
Protocol: as §1

U87MG/EGFRvIII cells [6] = assay: Transwell migration assay; assay type: cell-based, human; conditions: 0-1 μM
Protocol: A total of 1 × 10^4 cells were seeded onto the upper part of a transwell chamber (BD Bioscience, USA) containing a membrane filter for migration assays. Serum-free medium was added to the upper well, and medium containing 10% FBS was added to the lower well. After different treatments and incubation at 37 °C with 5% CO2, the filters were stained with crystal violet. Five random fields were counted per chamber by using a microscope.

[7] = higher dose (10 mg/kg) i.p. every 2 days, 10 doses

Cc1onc(-c2ccccc2)c1C(=O)Nc1ncc([N+](=O)[O-])s1 [MNPC, 5-methyl-N-(5-nitro-thiazol-2-yl)-3-phenylisoxazole-4-carboxamide]
IC50 (NQO1): 0.926 µM
Kd (μM), R100A (GSTP1 R100A): n.b. and no detectable binding
ROS levels, active caspase 3 and apoptosis in tumors ([1]; 3 and 10 mg/kg i.p.): dose-dependently increased
Mouse survival [1, 7]: enhanced mouse survival
Tumor growth (intracranial tumor volume) [1, 7]: reduced tumor growth
IC50 (GSTP1 F8A/Y108A [2]): 4.01 ± 0.6 µM
Kd (μM), F8A/Y108A (GSTP1 F8A/Y108A [3]): n.b. and no detectable binding
Caspase 3 activation / apoptosis (U87MG/EGFRvIII cells [4]): induced caspase 3 activation
Side effect by CBC, ALT and AST ([5]; RBC, WBC, ALT, AST, 3, 10 mg/kg, N.S. vs vehicle): modest
H&E staining of major organs ([5]; kidney, liver, spleen, heart and lung, 3, 10 mg/kg i.p.): no detectable toxicity
Body weight loss ([5]; treated mice): absence of weight loss
Kd (GSTP1 V104A): 24.4 ± 1.95 µM
Effect on migration (U87MG/EGFRvIII cells [6]): no effect
